# Measurements published in PMC6576746, “Rational discovery of dual-indication multi-target PDE/Kinase inhibitor for precision anti-cancer therapy using structural systems pharmacology” (PLoS Computational Biology, 2019).
# Tests used:
# Test in all cases: biochemical
# Parameters in all cases: DiscoverX KinomeScan competition binding assay across human kinases; per cent of control at 10 and 100 uM
# [1] = molecular target: T1, TYK2(JH2domain-pseudokinase) (Homo sapiens, UniProt P29597); conditions: competition binding, % of control
# T1 construct: JH2domain-pseudokinase
# T1 sequence (P29597 whole entry): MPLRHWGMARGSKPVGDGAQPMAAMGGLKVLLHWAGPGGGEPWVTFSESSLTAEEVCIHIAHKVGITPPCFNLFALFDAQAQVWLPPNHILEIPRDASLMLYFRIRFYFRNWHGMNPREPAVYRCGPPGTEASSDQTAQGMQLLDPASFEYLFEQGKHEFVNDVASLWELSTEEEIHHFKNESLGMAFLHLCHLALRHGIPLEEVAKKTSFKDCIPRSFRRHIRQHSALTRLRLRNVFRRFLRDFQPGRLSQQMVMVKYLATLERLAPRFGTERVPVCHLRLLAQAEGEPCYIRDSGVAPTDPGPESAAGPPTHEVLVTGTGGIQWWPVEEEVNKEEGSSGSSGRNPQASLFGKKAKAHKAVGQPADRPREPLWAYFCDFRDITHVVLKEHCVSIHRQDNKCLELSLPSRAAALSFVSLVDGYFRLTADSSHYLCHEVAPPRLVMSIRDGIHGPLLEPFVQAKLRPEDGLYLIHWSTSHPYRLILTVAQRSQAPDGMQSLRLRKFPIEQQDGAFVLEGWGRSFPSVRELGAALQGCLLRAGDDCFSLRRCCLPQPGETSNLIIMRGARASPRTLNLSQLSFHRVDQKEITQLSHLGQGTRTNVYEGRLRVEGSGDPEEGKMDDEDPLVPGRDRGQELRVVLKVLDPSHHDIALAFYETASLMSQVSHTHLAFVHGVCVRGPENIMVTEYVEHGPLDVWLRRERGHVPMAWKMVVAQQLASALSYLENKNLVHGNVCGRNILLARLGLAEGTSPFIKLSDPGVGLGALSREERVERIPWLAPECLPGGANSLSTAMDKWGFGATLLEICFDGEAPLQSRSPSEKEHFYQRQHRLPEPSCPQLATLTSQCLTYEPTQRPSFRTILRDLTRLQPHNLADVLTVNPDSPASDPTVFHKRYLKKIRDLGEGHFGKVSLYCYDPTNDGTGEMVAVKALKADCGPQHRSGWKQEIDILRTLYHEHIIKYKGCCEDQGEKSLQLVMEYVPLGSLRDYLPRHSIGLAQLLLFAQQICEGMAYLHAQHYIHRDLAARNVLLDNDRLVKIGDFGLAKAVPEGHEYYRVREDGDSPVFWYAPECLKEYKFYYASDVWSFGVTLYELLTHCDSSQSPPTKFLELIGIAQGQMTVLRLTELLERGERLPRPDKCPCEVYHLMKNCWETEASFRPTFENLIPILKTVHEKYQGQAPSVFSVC
# Summary of the method: (§1)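 Binding is expressed as %control, normalised between positive and negative control signals. The compound (levosimendan) was tested at 10 μM and 100 μM in the DiscoverX KinomeScan competition binding format against human kinases.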
# CDC2L2 = molecular target: T2, CDC2L2 (Homo sapiens, UniProt Q9UQ88); conditions: competition binding, % of control; read-out: Percent Control (100 uM Levosimendan)
# T2 construct: gene CDK11A
# Summary of the method: as §1
# AURKA = AURKA (Homo sapiens, UniProt O14965); conditions: competition binding, % of control; read-out: Percent Control (100 uM Levosimendan)
# Summary of the method: as §1
# NDR1 = molecular target: T3, NDR1 (Homo sapiens, UniProt Q15208); conditions: competition binding, % of control; read-out: Percent Control (100 uM Levosimendan)
# T3 construct: gene STK38
# T3 sequence (Q15208 whole entry): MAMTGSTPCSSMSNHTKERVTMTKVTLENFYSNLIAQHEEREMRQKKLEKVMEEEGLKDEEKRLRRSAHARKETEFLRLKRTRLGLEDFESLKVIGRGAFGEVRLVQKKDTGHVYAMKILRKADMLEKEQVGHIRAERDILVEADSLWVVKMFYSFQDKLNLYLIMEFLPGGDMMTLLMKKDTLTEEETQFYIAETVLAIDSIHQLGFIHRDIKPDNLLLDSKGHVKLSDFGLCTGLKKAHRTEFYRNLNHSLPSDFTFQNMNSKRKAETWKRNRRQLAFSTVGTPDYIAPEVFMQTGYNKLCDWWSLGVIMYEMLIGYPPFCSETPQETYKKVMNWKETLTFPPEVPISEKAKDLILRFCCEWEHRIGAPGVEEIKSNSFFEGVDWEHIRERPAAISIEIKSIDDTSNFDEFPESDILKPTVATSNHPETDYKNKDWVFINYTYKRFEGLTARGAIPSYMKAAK
# Summary of the method: as §1
# MLK1 = molecular target: T4, MLK1 (Homo sapiens, UniProt P80192); conditions: competition binding, % of control; read-out: Percent Control (100 uM Levosimendan)
# T4 construct: gene MAP3K9
# Summary of the method: as §1
# PAK7 = molecular target: T5, PAK7 (Homo sapiens, UniProt Q9P286); conditions: competition binding, % of control; read-out: Percent Control (100 uM Levosimendan)
# T5 construct: gene PAK5
# Summary of the method: as §1
# LTK = LTK (Homo sapiens, UniProt P29376); conditions: competition binding, % of control; read-out: Percent Control (100 uM Levosimendan)
# Sequence of LTK (P29376 whole entry): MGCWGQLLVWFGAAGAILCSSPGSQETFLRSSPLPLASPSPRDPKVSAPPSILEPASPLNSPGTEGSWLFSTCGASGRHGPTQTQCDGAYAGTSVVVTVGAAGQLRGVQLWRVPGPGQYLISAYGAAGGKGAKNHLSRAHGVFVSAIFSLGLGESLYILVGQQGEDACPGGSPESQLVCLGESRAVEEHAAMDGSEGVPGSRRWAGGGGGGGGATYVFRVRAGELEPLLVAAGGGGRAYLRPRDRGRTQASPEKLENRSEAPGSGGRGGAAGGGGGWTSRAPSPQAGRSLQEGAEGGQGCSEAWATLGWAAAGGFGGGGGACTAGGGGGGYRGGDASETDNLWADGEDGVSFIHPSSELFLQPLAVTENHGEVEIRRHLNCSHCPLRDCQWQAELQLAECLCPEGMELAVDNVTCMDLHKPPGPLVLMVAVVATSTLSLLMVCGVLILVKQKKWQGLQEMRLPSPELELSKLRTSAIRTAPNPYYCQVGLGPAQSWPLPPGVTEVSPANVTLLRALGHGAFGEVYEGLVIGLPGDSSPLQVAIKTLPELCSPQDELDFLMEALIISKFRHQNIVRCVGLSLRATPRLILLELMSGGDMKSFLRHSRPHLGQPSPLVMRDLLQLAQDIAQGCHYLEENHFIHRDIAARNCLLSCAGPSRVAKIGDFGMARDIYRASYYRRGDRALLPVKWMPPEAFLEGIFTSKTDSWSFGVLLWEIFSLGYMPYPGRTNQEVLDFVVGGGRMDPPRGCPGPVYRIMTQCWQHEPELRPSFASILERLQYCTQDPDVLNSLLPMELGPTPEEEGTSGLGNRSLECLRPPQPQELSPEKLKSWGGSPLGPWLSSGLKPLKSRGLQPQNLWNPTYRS
# Summary of the method: as §1
# EPHB3 = EPHB3 (Homo sapiens, UniProt P54753); conditions: competition binding, % of control; read-out: Percent Control (100 uM Levosimendan)
# Summary of the method: as §1
# ALK = ALK (Homo sapiens, UniProt Q9UM73); conditions: competition binding, % of control; read-out: Percent Control (100 uM Levosimendan)
# Summary of the method: as §1
# AURKC = AURKC (Homo sapiens, UniProt Q9UQB9); conditions: competition binding, % of control; read-out: Percent Control (100 uM Levosimendan)
# Sequence of AURKC (Q9UQB9 whole entry): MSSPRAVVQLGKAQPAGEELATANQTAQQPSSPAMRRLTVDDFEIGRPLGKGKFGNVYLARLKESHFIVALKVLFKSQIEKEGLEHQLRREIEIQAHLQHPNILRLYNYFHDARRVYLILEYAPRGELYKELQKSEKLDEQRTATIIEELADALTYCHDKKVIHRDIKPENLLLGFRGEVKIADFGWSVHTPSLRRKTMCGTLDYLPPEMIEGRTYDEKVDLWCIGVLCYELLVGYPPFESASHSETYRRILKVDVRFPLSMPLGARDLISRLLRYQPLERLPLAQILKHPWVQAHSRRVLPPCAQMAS
# Summary of the method: as §1
# BIKE = molecular target: T6, BIKE (Homo sapiens, UniProt Q9NSY1); conditions: competition binding, % of control
# T6 construct: gene BMP2K
# T6 sequence (Q9NSY1 whole entry): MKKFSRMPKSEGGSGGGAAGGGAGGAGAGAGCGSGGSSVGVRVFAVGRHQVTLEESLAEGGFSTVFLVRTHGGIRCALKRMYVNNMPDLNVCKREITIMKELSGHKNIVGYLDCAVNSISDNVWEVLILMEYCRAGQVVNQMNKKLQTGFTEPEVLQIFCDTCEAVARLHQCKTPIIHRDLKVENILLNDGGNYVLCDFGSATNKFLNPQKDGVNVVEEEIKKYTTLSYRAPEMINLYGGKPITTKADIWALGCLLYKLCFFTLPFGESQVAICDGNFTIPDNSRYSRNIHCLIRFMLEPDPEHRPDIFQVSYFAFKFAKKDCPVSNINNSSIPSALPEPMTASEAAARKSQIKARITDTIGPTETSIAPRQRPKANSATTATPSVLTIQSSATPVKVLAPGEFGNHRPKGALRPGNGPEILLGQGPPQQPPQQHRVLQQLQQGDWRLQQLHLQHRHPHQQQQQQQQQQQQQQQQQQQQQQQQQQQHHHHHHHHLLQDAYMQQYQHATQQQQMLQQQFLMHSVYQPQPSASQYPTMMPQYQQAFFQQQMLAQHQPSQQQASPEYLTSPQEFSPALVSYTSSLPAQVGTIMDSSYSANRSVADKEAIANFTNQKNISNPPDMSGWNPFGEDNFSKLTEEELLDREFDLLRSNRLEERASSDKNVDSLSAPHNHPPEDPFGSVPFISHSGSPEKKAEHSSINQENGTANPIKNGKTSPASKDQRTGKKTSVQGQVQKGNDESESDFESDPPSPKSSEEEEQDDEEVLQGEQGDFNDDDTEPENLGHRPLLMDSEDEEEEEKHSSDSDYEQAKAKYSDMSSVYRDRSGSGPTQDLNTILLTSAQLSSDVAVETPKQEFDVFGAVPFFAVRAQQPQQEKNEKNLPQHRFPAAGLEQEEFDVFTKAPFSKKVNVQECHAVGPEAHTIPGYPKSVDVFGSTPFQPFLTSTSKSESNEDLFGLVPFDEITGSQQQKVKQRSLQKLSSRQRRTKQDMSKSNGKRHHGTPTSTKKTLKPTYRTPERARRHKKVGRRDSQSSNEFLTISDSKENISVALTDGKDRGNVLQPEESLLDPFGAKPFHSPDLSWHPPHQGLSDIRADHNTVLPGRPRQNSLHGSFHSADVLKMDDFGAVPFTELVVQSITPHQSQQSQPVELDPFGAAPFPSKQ
# Summary of the method: as §1
# PRKCI = PRKCI (Homo sapiens, UniProt P41743); conditions: competition binding, % of control; read-out: Percent Control (100 uM Levosimendan)
# Summary of the method: as §1
# TIE2 = molecular target: T7, TIE2 (Homo sapiens, UniProt Q02763); conditions: competition binding, % of control; read-out: Percent Control (100 uM Levosimendan)
# T7 construct: gene TEK
# Summary of the method: as §1
# ERBB3 = ERBB3 (Homo sapiens, UniProt P21860); conditions: competition binding, % of control; read-out: Percent Control (100 uM Levosimendan)
# Summary of the method: as §1
# TAOK2 = TAOK2 (Homo sapiens, UniProt Q9UL54); conditions: competition binding, % of control; read-out: Percent Control (100 uM Levosimendan)
# Summary of the method: as §1
# DCAMKL2 = molecular target: T8, DCAMKL2 (Homo sapiens, UniProt Q8N568); conditions: competition binding, % of control; read-out: Percent Control (100 uM Levosimendan)
# T8 construct: gene DCLK2
# Summary of the method: as §1
# [2] = molecular target: T9, RPS6KA4(Kin.Dom.1-N-terminal) (Homo sapiens, UniProt O75676); conditions: competition binding, % of control; read-out: Percent Control (100 uM Levosimendan)
# T9 construct: Kin.Dom.1-N-terminal
# T9 sequence (O75676 whole entry): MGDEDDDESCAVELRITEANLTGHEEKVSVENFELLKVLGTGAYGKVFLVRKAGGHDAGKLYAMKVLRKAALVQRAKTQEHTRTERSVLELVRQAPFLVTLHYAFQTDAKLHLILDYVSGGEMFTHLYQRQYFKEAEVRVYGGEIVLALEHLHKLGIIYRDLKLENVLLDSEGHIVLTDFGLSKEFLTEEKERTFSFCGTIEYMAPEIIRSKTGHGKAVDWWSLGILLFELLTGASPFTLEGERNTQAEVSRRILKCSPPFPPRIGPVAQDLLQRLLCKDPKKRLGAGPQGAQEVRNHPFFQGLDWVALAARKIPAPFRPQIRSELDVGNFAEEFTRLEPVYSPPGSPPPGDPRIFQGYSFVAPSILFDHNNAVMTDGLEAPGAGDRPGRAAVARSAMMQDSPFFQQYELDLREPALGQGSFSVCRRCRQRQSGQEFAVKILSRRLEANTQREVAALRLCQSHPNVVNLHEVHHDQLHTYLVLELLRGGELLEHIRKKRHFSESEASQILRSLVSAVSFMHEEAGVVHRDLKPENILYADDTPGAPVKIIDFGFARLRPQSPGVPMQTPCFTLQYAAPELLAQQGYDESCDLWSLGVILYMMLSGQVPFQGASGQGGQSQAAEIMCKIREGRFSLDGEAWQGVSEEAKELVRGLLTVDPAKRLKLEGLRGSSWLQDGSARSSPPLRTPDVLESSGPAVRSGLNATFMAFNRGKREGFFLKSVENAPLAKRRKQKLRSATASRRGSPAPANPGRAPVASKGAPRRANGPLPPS
# Summary of the method: as §1
# PIK4CB = molecular target: T10, PIK4CB (Homo sapiens, UniProt Q9UBF8); conditions: competition binding, % of control; read-out: Percent Control (100 uM Levosimendan)
# T10 construct: gene PI4KB
# Summary of the method: as §1
# [3] = molecular target: T11, ABL1(H396P)-nonphosphorylated (Homo sapiens, UniProt P00519, H396P); conditions: competition binding, % of control; read-out: Percent Control (100 uM Levosimendan)
# T11 construct: nonphosphorylated
# Summary of the method: as §1
# [4] = read-out: Percent Control (10 uM Levosimendan)
# [5] = read-out: Percent Control (100 uM Levosimendan)
structure (smiles),measurement,setting,value
C[C@@H]1CC(=O)NN=C1c1ccc(NN=C(C#N)C#N)cc1 [levosimendan],remaining binding at 10 µM,[1]; [4],100%
same,remaining binding at 100 µM,[1]; [5],11%
same,remaining binding at 100 µM,CDC2L2,100%
same,remaining binding at 100 µM,AURKA,73%
same,remaining binding at 100 µM,NDR1,62%
same,remaining binding at 100 µM,MLK1,79%
same,remaining binding at 100 µM,PAK7,79%
same,remaining binding at 100 µM,LTK,96%
same,remaining binding at 100 µM,EPHB3,96%
same,remaining binding at 100 µM,ALK,76%
same,remaining binding at 100 µM,AURKC,100%
same,remaining binding at 10 µM,BIKE; [4],47%
same,remaining binding at 100 µM,BIKE; [5],2.2%
same,remaining binding at 100 µM,PRKCI,58%
same,remaining binding at 100 µM,TIE2,78%
same,remaining binding at 100 µM,ERBB3,75%
same,remaining binding at 100 µM,TAOK2,89%
same,remaining binding at 100 µM,DCAMKL2,100%
same,remaining binding at 100 µM,[2],53%
same,remaining binding at 100 µM,PIK4CB,100%
same,remaining binding at 100 µM,[3],60%
